Like-named read-outs stand apart in the source and are kept apart here.
What was measured:
[1] = in water and ethanol; cited from earlier work
[2] = oral, rats; cited from earlier work
[3] = transdermal; cited from earlier work
[4] = tested on: Tyrosinase; assay: RNA extraction and quantitative PCR assay, tyrosinase expression; format: cell-based; conditions: B6F10 melanocytes, α-MSH plus carvone, vs α-MSH control cells
Procedure: (§1) B6F10 melanocytes were cultured in DMEM containing 10% FBS at 37° C. under 5% CO2, and then the cells were dispensed into a 6-well plate at a density of 1×10^5 cells/well and attached thereto. As normal cells, cells not treated with α-MSH that induces melanogenesis were used, and as control cells, cells treated with α-MSH (100 nM) were used. The cells cultured under the above conditions were treated with α-MSH (100 nM) plus carvone (100 μM) and cultured for 48 hours. […] Using the cDNA obtained through reverse transcription as a template and using the [NT] flanking sequences of the gene cDNA to be amplified as primers, quantitative PCR was performed using iQ SYBR green supermix (Bio-Rad) and CFX ConnectTM Real-Time PCR Detection System (Bio-Rad). [table]

[5] = tested on: MITF (microphthalmia transcription factor); assay: RNA extraction and quantitative PCR assay, MITF expression; format: cell-based; conditions: B6F10 melanocytes, α-MSH plus carvone, vs α-MSH control cells
Procedure: as §1

[6] = tested on: B6F10 melanocytes; assay: Measurement of melanin production in cells (α-MSH-induced melanogenesis); format: cell-based; conditions: α-MSH (100 nM) plus carvone (100 μM), 48 hours
Procedure: B16F10 melanocytes were purchased from ATCC (Manassas, Va., USA), and the purchased cells were cultured using DMEM (Dulbecco's Modified Eagle's Media) containing 10% FBS (fetal bovine serum) in an incubator at 37° C. under 5% CO2. B6F10 melanocytes were cultured in DMEM containing 10% FBS at 37° C. under 5% CO2, and then the cells were dispensed into a 6-well plate at a density of 1×10^5 cells/well and attached thereto. […] After washing twice with PBS (phosphate buffered saline), the cells were harvested. The harvested cells were centrifuged at 1,000 rpm for 5 minutes, and then the color of the pellet was visually observed. Thereafter, the cell pellet was lysed by adding 200 μL of 1N NaOH solution containing 10% DMSO, and then the absorbance at 400 nm was measured with a microplate reader.

C=C(C)C1CC=C(C)C(=O)C1 (stereo not shown) [carvone]
solubility [1]: well soluble
LD50 [2]: 1,640 mg/kg
LD50 [3]: ≥ 4,000 mg/kg
decrease of tyrosinase expression compared to control cells [4]: 31%
decrease of MITF expression compared to control cells [5]: 36%
decrease of melanin content compared to control cells ([6]; absorbance at 400 nm, vs α-MSH control cells): 29%
pellet color of cells, visually observed ([6]; compared to control cells treated with only α-MSH): significantly paler
